In patent US9522907B2, “Anticancer agent and process for the preparation thereof” (COUNCIL OF SCIENTIFIC & INDUSTRIAL RESEARCH, priority 2014, dated 2016):

Legend:
Breast cancer cell lines = assay: cells; format: cell-based; details: for CC50: read-out: Log10 LC50 mean graph midpoint (MG_MID) (converted)
Description: (§1) The mean graph midpoint values of Log10 GI50 as well as Log10 LC50 for the compounds 2i, 5i and Hoechst 33258 (NSC-322921) is listed in Table 2.
(§2) Each cancer type represents the average of six to eight different cancer cell lines.

Renal cancer cell lines = assay: cells; format: cell-based; details: for CC50: read-out: Log10 LC50 mean graph midpoint (MG_MID) (converted)
Description: as §1, §2

[1] = test system: Leukemia cancer cell lines; assay: cells; format: cell-based; details: for LC50 (50% lethal concentration, NCI mean graph midpoint): read-out: Log10 LC50 mean graph midpoint (MG_MID) (converted)
Description: as §1, §2

SK-MEL-5 = assay: NCI in vitro cytotoxicity, SK-MEL-5; details: Homo sapiens
Description: (§3) For these compounds results are expressed as growth inhibition (GI50) values as per NCI protocol.

SF-268 = assay: NCI in vitro cytotoxicity, SF-268; details: Homo sapiens
Description: as §3

MCF-7 = assay: NCI in vitro cytotoxicity, MCF-7; details: Homo sapiens, MCF7
Description: as §3

TK-10 = assay: NCI in vitro cytotoxicity, TK-10; details: Homo sapiens
Description: as §3

RPMI-8226 = assay: NCI in vitro cytotoxicity, RPMI-8226; details: Homo sapiens
Description: as §3

HL-60 (TB) = assay: NCI in vitro cytotoxicity, HL-60 (TB); format: cell-based; details: Homo sapiens, Leukemia
SK-MEL-2 = assay: NCI in vitro cytotoxicity, SK-MEL-2; details: Homo sapiens
Description: as §3

OVCAR-5 = assay: NCI in vitro cytotoxicity, OVCAR-5; details: Homo sapiens
Description: as §3

MALME-3M = assay: NCI in vitro cytotoxicity, MALME-3M; details: Homo sapiens
Description: as §3

SN 12C = assay: NCI in vitro cytotoxicity, SN 12C; details: Homo sapiens, SN12C
Description: as §3

CCRF-CEM = assay: NCI in vitro cytotoxicity, CCRF-CEM; details: Homo sapiens
Description: as §3

LOX IMVI = assay: NCI in vitro cytotoxicity, LOX IMVI; details: Homo sapiens
Description: as §3

ACHN = assay: NCI in vitro cytotoxicity, ACHN; details: Homo sapiens
Description: as §3

PC-3 = assay: NCI in vitro cytotoxicity, PC-3; details: Homo sapiens
Description: as §3

NCI/ADR-RES = assay: NCI in vitro cytotoxicity, NCI/ADR-RES; details: Homo sapiens
Description: as §3

NCI-H226 = assay: NCI in vitro cytotoxicity, NCI-H226; details: Homo sapiens
Description: as §3

OVCAR-4 = assay: NCI in vitro cytotoxicity, OVCAR-4; details: Homo sapiens
Description: as §3

EKVX = assay: NCI in vitro cytotoxicity, EKVX; details: Homo sapiens
Description: as §3

UO-31 = assay: NCI in vitro cytotoxicity, UO-31; details: Homo sapiens
Description: as §3

CAKI-1 = assay: NCI in vitro cytotoxicity, CAKI-1; details: Homo sapiens
Description: as §3

NCI-H23 = assay: NCI in vitro cytotoxicity, NCI-H23; details: Homo sapiens
Description: as §3

RXF 393 = assay: NCI in vitro cytotoxicity, RXF 393; details: Homo sapiens
Description: as §3

NCI-H522 = assay: NCI in vitro cytotoxicity, NCI-H522; details: Homo sapiens
Description: as §3

MDA-MB-435 = assay: NCI in vitro cytotoxicity, MDA-MB-435; details: Homo sapiens
Description: as §3

HT29 = assay: NCI in vitro cytotoxicity, HT29; details: Homo sapiens, HT-29
Description: as §3

UACC-62 = assay: NCI in vitro cytotoxicity, UACC-62; details: Homo sapiens
Description: as §3

MDA-MB-231/ATCC = assay: NCI in vitro cytotoxicity, MDA-MB-231/ATCC; details: Homo sapiens
Description: as §3

UACC-257 = assay: NCI in vitro cytotoxicity, UACC-257; details: Homo sapiens
Description: as §3

SF-295 = assay: NCI in vitro cytotoxicity, SF-295; details: Homo sapiens
Description: as §3

IGROV 1 = assay: NCI in vitro cytotoxicity, IGROV 1; details: Homo sapiens
Description: as §3

HS 578T = assay: NCI in vitro cytotoxicity, HS 578T; details: Homo sapiens
Description: as §3

MOLT-4 = assay: NCI in vitro cytotoxicity, MOLT-4; details: Homo sapiens
Description: as §3

MDA-MB-468 = assay: NCI in vitro cytotoxicity, MDA-MB-468; details: Homo sapiens
Description: as §3

SNB-75 = assay: NCI in vitro cytotoxicity, SNB-75; details: Homo sapiens
Description: as §3

SK-OV-3 = assay: NCI in vitro cytotoxicity, SK-OV-3; details: Homo sapiens
Description: as §3

SNB-19 = assay: NCI in vitro cytotoxicity, SNB-19; details: Homo sapiens
Description: as §3

SK-MEL-28 = assay: NCI in vitro cytotoxicity, SK-MEL-28; details: Homo sapiens
Description: as §3

OVCAR-3 = assay: NCI in vitro cytotoxicity, OVCAR-3; details: Homo sapiens
Description: as §3

**Q.** With `COc1cc(-c2nc(-c3ccc(-c4nc5cc(F)ccc5[nH]4)cc3)no2)cc(OC)c1OC` [2i, 3-(4-(5-Fluoro-1H-benzo[d]imidazol-2-yl)phenyl)-5-(3,4,5-trimethoxyphenyl)-1,2,4-oxadiazole] as the compound, how does the “Log10 GI50 mean graph midpoint (MG_MID)” value (Breast cancer cell lines; Breast, average of cell lines of the cancer type) read?
**A.** −5.55

**Q.** What about the CC50 (Breast cancer cell lines; Homo sapiens) of the same compound?
**A.** 93.3 µM

**Q.** What about the CC50 (Renal cancer cell lines; Homo sapiens) of the same compound?
**A.** 79.4 µM

**Q.** What about the “Log10 GI50 mean graph midpoint (MG_MID)” value (Renal cancer cell lines; Renal, average of cell lines of the cancer type) of the same compound?
**A.** −5.45

**Q.** What about the LC50 (50% lethal concentration, NCI mean graph midpoint) ([1]; Homo sapiens) of the same compound?
**A.** ≥ 100 µM

**Q.** And the “Log10 GI50 mean graph midpoint (MG_MID)” value ([1]; Leukemia, average of cell lines of the cancer type)?
**A.** −5.64

**Q.** What about the GI50 (SK-MEL-5) of the same compound?
**A.** 2.22 µM

**Q.** What about the GI50 (SF-268) of the same compound?
**A.** 3.99 µM

**Q.** And the GI50 (MCF-7)?
**A.** 2.88 µM

**Q.** What about the GI50 (TK-10) of the same compound?
**A.** 8.27 µM

**Q.** What about the GI50 (RPMI-8226) of the same compound?
**A.** 1.94 µM

**Q.** What about the GI50 (HL-60 (TB)) of the same compound?
**A.** 2.24 µM

**Q.** And the GI50 (SK-MEL-2)?
**A.** 4.21 µM

**Q.** What about the GI50 (OVCAR-5) of the same compound?
**A.** 5.59 µM

**Q.** And the GI50 (MALME-3M)?
**A.** 2.32 µM

**Q.** And the GI50 (SN 12C)?
**A.** 3.59 µM

**Q.** And the GI50 (CCRF-CEM)?
**A.** 2.97 µM

**Q.** And the GI50 (LOX IMVI)?
**A.** 1.65 µM

**Q.** And the GI50 (ACHN)?
**A.** 3.72 µM

**Q.** And the GI50 (PC-3)?
**A.** 2.33 µM

**Q.** And the GI50 (NCI/ADR-RES)?
**A.** 2.49 µM

**Q.** What about the GI50 (NCI-H226) of the same compound?
**A.** 2.72 µM

**Q.** And the GI50 (OVCAR-4)?
**A.** 2.82 µM

**Q.** And the GI50 (EKVX)?
**A.** 3.45 µM

**Q.** What about the GI50 (UO-31) of the same compound?
**A.** 2.51 µM

**Q.** What about the GI50 (CAKI-1) of the same compound?
**A.** 2.76 µM

**Q.** What about the GI50 (NCI-H23) of the same compound?
**A.** 2.5 µM

**Q.** What about the GI50 (RXF 393) of the same compound?
**A.** 1.9 µM

**Q.** What about the GI50 (NCI-H522) of the same compound?
**A.** 3.04 µM

**Q.** And the GI50 (MDA-MB-435)?
**A.** 2.73 µM

**Q.** And the GI50 (HT29)?
**A.** 3.69 µM

**Q.** And the GI50 (UACC-62)?
**A.** 2.35 µM

**Q.** What about the GI50 (MDA-MB-231/ATCC) of the same compound?
**A.** 2.39 µM

**Q.** And the GI50 (UACC-257)?
**A.** 3.7 µM

**Q.** What about the GI50 (SF-295) of the same compound?
**A.** 2.31 µM

**Q.** And the GI50 (IGROV 1)?
**A.** 3.81 µM

**Q.** And the GI50 (HS 578T)?
**A.** 2.27 µM

**Q.** What about the GI50 (MOLT-4) of the same compound?
**A.** 1.99 µM

**Q.** And the GI50 (MDA-MB-468)?
**A.** 3.01 µM

**Q.** What about the GI50 (SNB-75) of the same compound?
**A.** 7.74 µM

**Q.** What about the GI50 (SK-OV-3) of the same compound?
**A.** 4.12 µM

**Q.** And the GI50 (SNB-19)?
**A.** 5.62 µM

**Q.** What about the GI50 (SK-MEL-28) of the same compound?
**A.** 3.78 µM

**Q.** What about the GI50 (OVCAR-3) of the same compound?
**A.** 2.56 µM

**Q.** How did the CC50 (Breast cancer cell lines; Homo sapiens) turn out when `COc1ccc2[nH]c(-c3ccc(-c4noc(-c5cc(OC)c(OC)c(OC)c5)n4)cc3)nc2c1` [5i, 3-(4-(5-Methoxy-1H-benzo[d]imidazol-2-yl)phenyl)-5-(3,4,5-trimethoxyphenyl)-1,2,4-oxadiazole] was run?
**A.** 79.4 µM

**Q.** What about the GI50 (Breast cancer cell lines; Homo sapiens, Breast, average of cell lines of the cancer type, read-out: Log10 GI50 mean graph midpoint (MG_MID) (converted)) of the same compound?
**A.** 3.39 µM

**Q.** And the CC50 (Renal cancer cell lines; Homo sapiens)?
**A.** 74.1 µM

**Q.** And the GI50 (Renal cancer cell lines; Homo sapiens, Renal, average of cell lines of the cancer type, read-out: Log10 GI50 mean graph midpoint (MG_MID) (converted))?
**A.** 14.5 µM

**Q.** And the LC50 (50% lethal concentration, NCI mean graph midpoint) ([1]; Homo sapiens)?
**A.** 100 µM

**Q.** What about the GI50 ([1]; Homo sapiens, Leukemia, average of cell lines of the cancer type, read-out: Log10 GI50 mean graph midpoint (MG_MID) (converted)) of the same compound?
**A.** 3.31 µM

**Q.** And the GI50 (SK-MEL-5)?
**A.** 3.25 µM

**Q.** What about the GI50 (SF-268) of the same compound?
**A.** 7.13 µM

**Q.** And the GI50 (MCF-7)?
**A.** 1.08 µM

**Q.** What about the GI50 (TK-10) of the same compound?
**A.** 4.62 µM

**Q.** And the GI50 (RPMI-8226)?
**A.** 6.02 µM

**Q.** And the GI50 (HL-60 (TB))?
**A.** 2.02 µM

**Q.** And the GI50 (SK-MEL-2)?
**A.** 18.9 µM

**Q.** What about the GI50 (OVCAR-5) of the same compound?
**A.** 16.7 µM

**Q.** And the GI50 (MALME-3M)?
**A.** 1.67 µM

**Q.** What about the GI50 (SN 12C) of the same compound?
**A.** 13.2 µM

**Q.** What about the GI50 (CCRF-CEM) of the same compound?
**A.** 2.2 µM

**Q.** What about the GI50 (LOX IMVI) of the same compound?
**A.** 13.3 µM

**Q.** What about the GI50 (ACHN) of the same compound?
**A.** 28.2 µM

**Q.** What about the GI50 (PC-3) of the same compound?
**A.** 240 µM

**Q.** And the GI50 (NCI/ADR-RES)?
**A.** 3.32 µM

**Q.** What about the GI50 (NCI-H226) of the same compound?
**A.** 2.27 µM

**Q.** And the GI50 (OVCAR-4)?
**A.** 1.88 µM

**Q.** And the GI50 (EKVX)?
**A.** 26.2 µM

**Q.** What about the GI50 (UO-31) of the same compound?
**A.** 1.89 µM

**Q.** What about the GI50 (CAKI-1) of the same compound?
**A.** 23.4 µM

**Q.** What about the GI50 (NCI-H23) of the same compound?
**A.** 4.1 µM

**Q.** What about the GI50 (RXF 393) of the same compound?
**A.** 5.24 µM

**Q.** What about the GI50 (NCI-H522) of the same compound?
**A.** 6.89 µM

**Q.** And the GI50 (MDA-MB-435)?
**A.** 4.27 µM

**Q.** And the GI50 (HT29)?
**A.** 2.7 µM

**Q.** And the GI50 (UACC-62)?
**A.** 14 µM

**Q.** What about the GI50 (MDA-MB-231/ATCC) of the same compound?
**A.** 2.65 µM

**Q.** What about the GI50 (UACC-257) of the same compound?
**A.** 17.1 µM

**Q.** What about the GI50 (SF-295) of the same compound?
**A.** 15 µM

**Q.** What about the GI50 (IGROV 1) of the same compound?
**A.** 26.3 µM

**Q.** What about the GI50 (HS 578T) of the same compound?
**A.** 9.49 µM

**Q.** What about the GI50 (MOLT-4) of the same compound?
**A.** 5.29 µM

**Q.** What about the GI50 (MDA-MB-468) of the same compound?
**A.** 6.54 µM

**Q.** And the GI50 (SNB-75)?
**A.** 12.5 µM

**Q.** And the GI50 (SK-OV-3)?
**A.** 25.3 µM

**Q.** And the GI50 (SNB-19)?
**A.** 1.27 µM

**Q.** And the GI50 (SK-MEL-28)?
**A.** 9.59 µM

**Q.** And the GI50 (OVCAR-3)?
**A.** 42.5 µM
